US20180153194A1, “AGENT HAVING ANTI-ICE NUCLEATION ACTIVITY” (THE SCHOOL CORPORATION KANSAI UNIVERSITY, priority 2015, published 2018)

How the values were obtained:
[1] = Anti-ice nucleation active performance (supercooling acceleration), droplet-freezing method of Vali, silver iodide; assay type: physicochemical; settings: for anti-ice nucleation activity (in words): 2.0 mM aqueous solution; for improvement in anti-ice nucleation activity level of tri-peptide compared to the mono-amino acid: 2.0 mM
Procedure: Nine hundred microliters of an aqueous solution was prepared by dissolving silver iodide in ultra-pure water to a silver iodide concentration of 1.0 mg/mL.
(§1) A blank sample was prepared by mixing 100 μL of ultra-pure water with 900 μL of the aqueous solution in which silver iodide was dissolved.
(§2) The anti-ice nucleation active performance (supercooling acceleration performance) was measured by using the droplet-freezing method of Vali. More specifically, in accordance with the droplet-freezing method of Vali (FIG. 1), an aluminum film was placed on the copper plate of a cold plate chiller (CoolAce CCA-1000, Tokyo Rikakikai Co., Ltd.), and the film was coated with a silicone oil suspension diluted with acetone and chloroform (a solution of acetone:chloroform=1:2). Then, each sample for evaluation or the blank sample was dropped (10 μL each) on 30 points of the surface, the temperature was decreased at a rate of 1.0° C./min, and the temperature at which 50% of the 30 droplets were frozen was considered to be T50.
The droplet-freezing temperature of each sample was referred to as SampleT50, and the droplet-freezing temperature of the blank sample was referred to as BlankT50. Then, the anti-ice nucleation activity level ΔT50 (° C.) was calculated by the following formula:
ΔT50 (° C.)=BlankT50−SampleT50 Formula: […]
(§3) The results are average values of the results of the test performed three times.
as §1
Each sample for evaluation was prepared by mixing 100 μL of the aqueous solutions of Examples 2 and 11 and Comparative Example 10 with 900 μL of the aqueous solution in which silver iodide was dissolved. A blank sample was prepared by mixing 100 μL of ultra-pure water with 900 μL of the aqueous solution in which silver iodide was dissolved.
as §3

Cooling curve of tofu = settings: for anti-ice nucleation activity towards tofu (in words): cooling curve compared to Comparative Example 9; for Freezing onset temperature / Temperature at which tofu was completely frozen / Time taken for tofu to be completely frozen: tofu immersed overnight, cooled in freezer at −20° C.
Procedure: Silken tofu (1.5 mm (length)×1.5 mm (width)×1.5 mm (height)) that was immersed overnight in the solution of Comparative Example 9 (blank), Example 1 (tyrosine dimer), or Example 2 (tyrosine trimer) was cooled.
A thermocouple thermometer (Horiba) was inserted in tofu, and the temperature was measured every 20 seconds in a freezer at −20° C. A cooling curve was then obtained based on the relationship between the temperature (° C.) and the cooling time (in seconds) (FIG. 9). Table 5 below and FIG. 9 show the temperature at which the tofu began to freeze (freezing onset temperature), the temperature at which the tofu was completely frozen, and the time taken for the tofu to be completely frozen.

[2] = State of tofu after freezing and thawing, and breaking load of tofu; settings: frozen in liquid nitrogen
Procedure: Silken tofu (1.5 mm (length)×1.5 mm (width)×1.5 mm (height)) was immersed in the solution of Comparative Example 9 (water, blank) or Example 1 (tyrosine dimer) overnight. Thereafter, the tofu was taken out of the solution, the moisture was wiped off, and then the tofu was wrapped with wrap (plastic wrap). The tofu wrapped in plastic wrap was immersed in liquid nitrogen to be quickly frozen. The frozen tofu was then slowly thawed (warmed at 25° C.) or quickly thawed (warmed at 60° C.). […] The breaking load (N) of tofu was measured by a creep meter (RE2-33005C, Yamaden, Co., Ltd.).

Pseudomonas fluorescens = test: Effect on different kind of ice nucleation active substance, droplet-freezing method of Vali; assay type: physicochemical; settings: towards Pseudomonas fluorescens in place of silver iodide; average of three tests
Procedure: as §2, with “Then, each sample for evaluation or the blank sample was dropped (10 μL each) on 30 points of the surface, the temperature was decreased at a rate of 1.0° C./min, and the temperature at which 50% of the 30 droplets were frozen was considered to be T50.” left out
The droplet-freezing temperature of each sample was referred to as SampleT50, and the droplet-freezing temperature of the blank sample was referred to as BlankT50. Then, the anti-ice nucleation activity level ΔT50 (° C.) was calculated by the following formula: […]
A sample for evaluation of Example 1 was prepared in a manner similar to that described in Test Example 1, except that Pseudomonas fluorescens, which is the Pseudomonas bacterium, was used in place of silver iodide, which is an ice nucleation active substance. The anti-ice nucleation active performance (supercooling acceleration performance) was measured by using a test method similar to that described in Test Example 1. […]

[3] = Anti-ice nucleation activity test with respect to biological material (beef liver); settings: 10 μL, final concentration 0.2 mM, dropped on beef liver; blank ultra-pure water
Procedure: Ten microliters of an aqueous solution in which the aqueous solution of the anti-ice nucleation activator of Example 2 (tyrosine trimer) was diluted 10-fold with ultra-pure water (final concentration: 0.2 mM) was added dropwise on a beef liver (1 mm (length)×1 mm (width)×1 mm (height)). As a blank sample, ultra-pure water was used.
The anti-ice nucleation active performance (supercooling acceleration performance) was measured by using a method similar to the droplet-freezing method of Vali described in Test Example 1. The results are average values of the results of the test performed three times.

[4] = ΔT50 = BlankT50 − SampleT50, 2.0 mM aqueous solution (100 μL) mixed with 900 μL silver iodide 1.0 mg/mL, average of three tests

Compound: N[C@@H](Cc1ccc(O)cc1)C(=O)O [Comparative Example 1, tyrosine, reference compound]
- anti-ice nucleation activity (in words) ([1]; silver iodide): no anti-ice nucleation activity
- Anti-ice nucleation activity level [1, 4]: 0.3 °C

Compound: N[C@@H](Cc1ccccc1)C(=O)O [Comparative Example 4, phenylalanine, reference compound]
- Anti-ice nucleation activity level [1, 4]: 0.5 °C

Compound: N[C@@H](CO)C(=O)O [Comparative Example 6, serine, reference compound]
- Anti-ice nucleation activity level [1, 4]: 0.1 °C

Compound: C[C@@H](O)[C@H](N)C(=O)O [Comparative Example 8, threonine, reference compound]
- Anti-ice nucleation activity level [1, 4]: 0.1 °C

Compound: Phe-Phe-Phe [Comparative Example 3, reference compound]
- improvement in anti-ice nucleation activity level of tri-peptide compared to the mono-amino acid ([1]; silver iodide): no improvement in the anti-ice nucleation activity level
- Anti-ice nucleation activity level [1, 4]: 0.3 °C

Compound: Ser-Ser-Ser [Comparative Example 5, reference compound]
- improvement in anti-ice nucleation activity level of tri-peptide compared to the mono-amino acid ([1]; silver iodide): no improvement in the anti-ice nucleation activity level
- Anti-ice nucleation activity level [1, 4]: 0.4 °C

Compound: Thr-Thr-Thr [Comparative Example 7, reference compound]
- improvement in anti-ice nucleation activity level of tri-peptide compared to the mono-amino acid ([1]; silver iodide): no improvement in the anti-ice nucleation activity level
- Anti-ice nucleation activity level [1, 4]: −0.3 °C

Compound: Tyr-Tyr [Example 1]
- anti-ice nucleation activity towards tofu (in words) (Cooling curve of tofu): exert anti-ice nucleation activity towards tofu
- Freezing onset temperature (Cooling curve of tofu): −1.2° ° C.
- Temperature at which tofu was completely frozen (Cooling curve of tofu): −6.8° ° C.
- Time taken for tofu to be completely frozen (Cooling curve of tofu): 1120 s
- Anti-ice nucleation activity level [1, 4]: 2.6 °C
- cavities in the tofu after thawing ([2]; slow or quick thawing): no cavities were formed
- breaking load of the tofu ([2]; tofu immersed overnight, slow thawing (25° C.) and quick thawing (60° C.), compared to Comparative Example 9 (water)): low

Compound: Tyr-Tyr-Tyr [Example 2]
- anti-ice nucleation activity towards tofu (in words) (Cooling curve of tofu): exert anti-ice nucleation activity towards tofu
- Freezing onset temperature (Cooling curve of tofu): −0.8° ° C.
- Temperature at which tofu was completely frozen (Cooling curve of tofu): −7.8° ° C.
- Time taken for tofu to be completely frozen (Cooling curve of tofu): 1080 s
- anti-ice nucleation active performance (Pseudomonas fluorescens): 1.9 °C
- anti-ice nucleation activity (in words) ([1]; silver iodide): highest anti-ice nucleation activity level
- improvement in anti-ice nucleation activity level of tri-peptide compared to the mono-amino acid ([1]; silver iodide): significantly improved anti-ice nucleation activity level
- anti-ice nucleation active performance (in words) ([1]; all concentration levels within 0.1 to 10.0 mM, silver iodide): exhibited anti-ice nucleation active performance
- Anti-ice nucleation activity level [1, 4]: 10.1 °C
- Anti-ice nucleation activity level [3]: 0.6 °C

Compound: Tyr-Tyr-Tyr [Example 5]
- Anti-ice nucleation activity level ([1]; tyrosine trimer concentration 0.1 mM, silver iodide 1.0 mg/mL): 2.3 °C

Compound: Tyr-Tyr-Tyr [Example 6]
- Anti-ice nucleation activity level ([1]; tyrosine trimer concentration 0.2 mM, silver iodide 1.0 mg/mL): 3.7 °C

Compound: Tyr-Tyr-Tyr [Example 7]
- Anti-ice nucleation activity level ([1]; tyrosine trimer concentration 0.5 mM, silver iodide 1.0 mg/mL): 1.8 °C

Compound: Tyr-Tyr-Tyr [Example 8]
- Anti-ice nucleation activity level ([1]; tyrosine trimer concentration 1.0 mM, silver iodide 1.0 mg/mL): 5.7 °C

Compound: Tyr-Tyr-Tyr [Example 9]
- Anti-ice nucleation activity level ([1]; tyrosine trimer concentration 5.0 mM, silver iodide 1.0 mg/mL): 9.2 °C

Compound: Tyr-Tyr-Tyr [Example 10]
- Anti-ice nucleation activity level ([1]; tyrosine trimer concentration 10.0 mM, silver iodide 1.0 mg/mL): 9.2 °C

Compound: Tyr-Tyr-Tyr-Tyr (YYYY; printed: Tyr-Tyr-Tyr-Tyr) [Example 3]
- Anti-ice nucleation activity level [1, 4]: 1.8 °C

Compound: Tyr-Tyr-Tyr-Tyr-Tyr (YYYYY; printed: Tyr-Tyr-Tyr-Tyr-Tyr) [Example 4]
- Anti-ice nucleation activity level [1, 4]: 1.7 °C
